Test results from patent publication US20250282768A1 (Janssen Pharmaceutica NV, priority 2022, published 2025).

Tested on: p-IKKa levels in L363 (NIK translocated multiple myeloma) cells
Assay: Assay 2: Effect of compounds on p-IKKa levels in L363 (NIK translocated multiple myeloma) cells
Format: cell-based
Details: Homo sapiens, L-363, 6 h, read-out: Assay 2 IC50 (nM), p-IKKa (Ser 176/180) in BAFF stimulated L363 cells with MG132, 6 h; average if tested more than once
Summary of the method: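 Read-out is p-IKKa Ser176/180 by AlphaLISA SureFire in lysates. Cells were BAFF-primed (250 ng/ml) overnight or left unstimulated, then exposed 6 h at 37 °C to compound with MG132 (10 μM), 0.3% DMSO. IC50 from sigmoidal curve fit, normalized between stimulated and unstimulated controls.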

Question: `CN1CC[C@@](O)(c2cc(-c3cccc(-c4ccnc(Nc5cnn6c5CCCC6)n4)n3)on2)C1=O` [Example 406, (R)-3-Hydroxy-1-methyl-3-(5-(6-(2-((4,5,6,7-tetrahydropyrazolo[1,5-a]pyridin-3-yl)amino)pyrimidin-4-yl)pyridin-2-yl)isoxazol-3-yl)pyrrolidin-2-one] was tested. Which IC50 did it give?
Answer: < 50 nM

Question: With `CN1CC[C@@](O)(c2cc(-c3cccc(-c4ccnc(N[C@@H]5CCOC5)n4)n3)no2)C1=O` [Example 460, (R)-3-Hydroxy-1-methyl-3-(3-(6-(2-(((R)-tetrahydrofuran-3-yl)amino)pyrimidin-4-yl)pyridin-2-yl)isoxazol-5-yl)pyrrolidin-2-one] as the compound, how does the IC50 read?
Answer: 50 to 500 nM

Question: For `[2H]c1cc(-c2cccc(-c3cc([C@]4(O)CCN(C)C4=O)on3)n2)nc(Nc2ccn(CC)n2)n1` [Example 210, (R)-3-(3-(6-(2-((1-Ethyl-1H-pyrazol-3-yl)amino)pyrimidin-4-yl-6-d)pyridin-2-yl)isoxazol-5-yl)-3-hydroxy-1-methylpyrrolidin-2-one], which IC50 is on record?
Answer: < 50 nM

Question: How did the IC50 turn out when `CN1CC[C@@](O)(c2cnn(-c3cccc(-c4ccnc(Nc5cn(CC(F)F)nc5OC5CC5)n4)n3)c2)C1=O` [Example 97, (R)-3-(1-(6-(2-((3-Cyclopropoxy-1-(2,2-difluoroethyl)-1H-pyrazol-4-yl)amino)pyrimidin-4-yl)pyridin-2-yl)-1H-pyrazol-4-yl)-3-hydroxy-1-methylpyrrolidin-2-one] was run?
Answer: 50 to 500 nM

Question: `CN1CC[C@@](O)(c2cc(-c3cccc(-c4ccnc(Nc5cc6n(n5)CCOC6)n4)c3)no2)C1=O` [Example 22, (R)-3-(3-(3-(2-((6,7-Dihydro-4H-pyrazolo[5,1-c][1,4]oxazin-2-yl)amino)pyrimidin-4-yl)phenyl)isoxazol-5-yl)-3-hydroxy-1-methylpyrrolidin-2-one] was tested. Which IC50 did it give?
Answer: > 500 nM

Question: With `CN1CC[C@@](O)(c2cc(-c3cccc(-c4ccnc(Nc5cnn6c5CCCC6)n4)n3)no2)C1=O` [Example 259, (R)-3-Hydroxy-1-methyl-3-(3-(6-(2-((4,5,6,7-tetrahydropyrazolo[1,5-a]pyridin-3-yl)amino)pyrimidin-4-yl)pyridin-2-yl)isoxazol-5-yl)pyrrolidin-2-one] as the compound, how does the IC50 read?
Answer: < 50 nM

Question: `C[C@@H](Nc1nccc(-c2cccc(-c3cc([C@]4(O)CCN(C)C4=O)on3)n2)n1)C(=O)N(C)C` [Example 175, (R)-2-((4-(6-(5-((R)-3-Hydroxy-1-methyl-2-oxopyrrolidin-3-yl)isoxazol-3-yl)pyridin-2-yl)pyrimidin-2-yl)amino)-N,N-dimethylpropanamide] was tested. Which IC50 did it give?
Answer: > 500 nM

Question: With `C[C@@H](CC(F)(F)F)Nc1nccc(-c2cccc(-c3cc([C@]4(O)CCN(C)C4=O)on3)n2)n1` (single isomer, unassigned) [Example 437, (R)-3-Hydroxy-1-methyl-3-(3-(6-(2-(((*S)-4,4,4-trifluorobutan-2-yl)amino)pyrimidin-4-yl)pyridin-2-yl)isoxazol-5-yl)pyrrolidin-2-one] as the compound, how does the IC50 read?
Answer: 50 to 500 nM

Question: Which IC50 does the source give for `Cc1nscc1Nc1nccc(-c2cccc(-c3cc([C@]4(O)CCN(C)C4=O)on3)n2)n1` [Example 229, (R)-3-Hydroxy-1-methyl-3-(3-(6-(2-((3-methylisothiazol-4-yl)amino)pyrimidin-4-yl)pyridin-2-yl)isoxazol-5-yl)pyrrolidin-2-one] here?
Answer: < 50 nM

Question: How did the IC50 turn out when `COc1nn(CC(F)F)cc1Nc1nccc(-c2cccc(-c3cnc([C@]4(O)CCN(C)C4=O)s3)n2)n1` (single isomer, unassigned) [Example 188, (*R)-3-(5-(6-(2-((1-(2,2-Difluoroethyl)-3-methoxy-1H-pyrazol-4-yl)amino)pyrimidin-4-yl)pyridin-2-yl)thiazol-2-yl)-3-hydroxy-1-methylpyrrolidin-2-one] was run?
Answer: < 50 nM

Question: How did the IC50 turn out when `Cc1ncnn1-c1ccc(Nc2nccc(-c3cccc(-c4cc([C@]5(O)CCN(C)C5=O)on4)n3)n2)nc1` [Example 131, (R)-3-Hydroxy-1-methyl-3-(3-(6-(2-((5-(5-methyl-1H-1,2,4-triazol-1-yl)pyridin-2-yl)amino)pyrimidin-4-yl)pyridin-2-yl)isoxazol-5-yl)pyrrolidin-2-one] was run?
Answer: 50 to 500 nM

Question: Which IC50 does the source give for `COc1nn(CCO)cc1Nc1nccc(-c2cccc(-c3cc([C@]4(O)CCN(C)C4=O)on3)n2)n1` [Example 48, (R)-3-Hydroxy-3-(3-(6-(2-((1-(2-hydroxyethyl)-3-methoxy-1H-pyrazol-4-yl)amino)pyrimidin-4-yl)pyridin-2-yl)isoxazol-5-yl)-1-methylpyrrolidin-2-one] here?
Answer: < 50 nM

Question: For `CN1CC[C@@](O)(c2cc(-c3cc(C(F)(F)F)cc(-c4ccnc(Nc5cnn(C)c5)n4)n3)no2)C1=O` [Example 4, (R)-3-Hydroxy-1-methyl-3-(3-(6-(2-((1-methyl-1H-pyrazol-4-yl)amino)pyrimidin-4-yl)-4-(trifluoromethyl)pyridin-2-yl)isoxazol-5-yl)pyrrolidin-2-one], which IC50 is on record?
Answer: < 50 nM

Question: For `COc1ccc(Nc2nccc(-c3cccc(-c4cc([C@]5(O)CCN(C)C5=O)on4)n3)n2)cn1` [Example 285, (R)-3-Hydroxy-3-(3-(6-(2-((6-methoxypyridin-3-yl)amino)pyrimidin-4-yl)pyridin-2-yl)isoxazol-5-yl)-1-methylpyrrolidin-2-one], which IC50 is on record?
Answer: < 50 nM

Question: `CN1CC[C@@](O)(c2cc(-c3cccc(-c4ccnc(Nc5ccn(C6COC6)n5)n4)n3)no2)C1=O` [Example 312, (R)-3-Hydroxy-1-methyl-3-(3-(6-(2-((1-(oxetan-3-yl)-1H-pyrazol-3-yl)amino)pyrimidin-4-yl)pyridin-2-yl)isoxazol-5-yl)pyrrolidin-2-one] was tested. Which IC50 did it give?
Answer: < 50 nM

Question: `CN1CC[C@@](O)(c2cc(-c3cccc(-c4ccnc(NC5COC5)n4)n3)no2)C1=O` [Example 66, (R)-3-Hydroxy-1-methyl-3-(3-(6-(2-(oxetan-3-ylamino)pyrimidin-4-yl)pyridin-2-yl)isoxazol-5-yl)pyrrolidin-2-one] was tested. Which IC50 did it give?
Answer: 50 to 500 nM

Question: For `Cc1ccn2cnnc2c1Nc1nccc(-c2cccc(-c3cc([C@]4(O)CCN(C)C4=O)on3)n2)n1` [Example 273, (R)-3-Hydroxy-1-methyl-3-(3-(6-(2-((7-methyl-[1,2,4]triazolo[4,3-a]pyridin-8-yl)amino)pyrimidin-4-yl)pyridin-2-yl)isoxazol-5-yl)pyrrolidin-2-one], which IC50 is on record?
Answer: > 500 nM

Question: `CN1CC[C@@](O)(c2cc(-c3cccc(-c4ccnc(N[C@H]5CC[C@@H](O)C5)n4)c3)no2)C1=O` [Example 14, (R)-3-Hydroxy-3-(3-(3-(2-(((1 S,3R)-3-hydroxycyclopentyl)amino)pyrimidin-4-yl)phenyl)isoxazol-5-yl)-1-methylpyrrolidin-2-one] was tested. Which IC50 did it give?
Answer: > 500 nM

Question: For `CN1CC[C@@](O)(c2cc(-c3cccc(-c4ccnc(Nc5cnc6n5CCOC6)n4)n3)no2)C1=O` [Example 313, (R)-3-(3-(6-(2-((5,6-Dihydro-8H-imidazo[2,1-c][1,4]oxazin-3-yl)amino)pyrimidin-4-yl)pyridin-2-yl)isoxazol-5-yl)-3-hydroxy-1-methylpyrrolidin-2-one], which IC50 is on record?
Answer: > 500 nM

Question: Which IC50 does the source give for `CCOc1nn(C)cc1Nc1nccc(-c2cccc(-c3cc([C@]4(O)CCN(C)C4=O)on3)n2)n1` [Example 55, (R)-3-(3-(6-(2-((3-Ethoxy-1-methyl-1H-pyrazol-4-yl)amino)pyrimidin-4-yl)pyridin-2-yl)isoxazol-5-yl)-3-hydroxy-1-methylpyrrolidin-2-one] here?
Answer: < 50 nM

Question: For `CN1CC[C@H](n2cc(Nc3nccc(-c4cccc(-c5cc([C@]6(O)CCN(C)C6=O)on5)n4)n3)cn2)C1` (single isomer, unassigned) [Example 203, (R)-3-Hydroxy-1-methyl-3-(3-(6-(2-((1-((*S)-1-methylpyrrolidin-3-yl)-1H-pyrazol-4-yl)amino)pyrimidin-4-yl)pyridin-2-yl)isoxazol-5-yl)pyrrolidin-2-one], which IC50 is on record?
Answer: 50 to 500 nM

Question: With `CN1CC[C@H](n2cc(Nc3nccc(-c4cccc(-c5cc([C@]6(O)CCN(C)C6=O)on5)n4)n3)cn2)[C@@H](F)C1` (single isomer, unassigned) [Example 201] as the compound, how does the IC50 read?
Answer: < 50 nM

Question: `CN1CC[C@](O)(c2cc(-c3cccc(-c4ccnc(Nc5cnn(C)c5Cl)n4)n3)n[nH]2)C1=O` (single isomer, unassigned) [Example 105] was tested. Which IC50 did it give?
Answer: 50 to 500 nM

Question: How did the IC50 turn out when `CN1CC[C@@](O)(c2cc(-c3cccc(-c4ccnc(NCCF)n4)n3)no2)C1=O` [Example 364, (R)-3-(3-(6-(2-((2-Fluoroethyl)amino)pyrimidin-4-yl)pyridin-2-yl)isoxazol-5-yl)-3-hydroxy-1-methylpyrrolidin-2-one] was run?
Answer: 50 to 500 nM

Question: `C[C@@H](Nc1nccc(-c2cccc(-c3cc([C@]4(O)CCN(C)C4=O)on3)n2)n1)c1cccnc1` [Example 375, (R)-3-Hydroxy-1-methyl-3-(3-(6-(2-(((R)-1-(pyridin-3-yl)ethyl)amino)pyrimidin-4-yl)pyridin-2-yl)isoxazol-5-yl)pyrrolidin-2-one] was tested. Which IC50 did it give?
Answer: 50 to 500 nM

Question: With `CN1C(=O)[C@](O)(c2cc(-c3cccc(-c4ccnc(Nc5cnn(C)c5)n4)n3)no2)[C@H]2C[C@H]21` [Example 240, (1R,4R,5S)-4-Hydroxy-2-methyl-4-(3-(6-(2-((1-methyl-1H-pyrazol-4-yl)amino)pyrimidin-4-yl)pyridin-2-yl)isoxazol-5-yl)-2-azabicyclo[3.1.0]hexan-3-one] as the compound, how does the IC50 read?
Answer: 50 to 500 nM

Question: `CN1CC[C@@](O)(c2cc(-c3cccc(-c4ccnc(Nc5nnc(C6CC6)o5)n4)n3)no2)C1=O` [Example 304, (R)-3-(3-(6-(2-((5-Cyclopropyl-1,3,4-oxadiazol-2-yl)amino)pyrimidin-4-yl)pyridin-2-yl)isoxazol-5-yl)-3-hydroxy-1-methylpyrrolidin-2-one] was tested. Which IC50 did it give?
Answer: 50 to 500 nM

Question: `CN1CCC(n2cc(Nc3nccc(-c4cccc(-c5cc([C@@]6(O)C(=O)N(C)CC6(F)F)on5)n4)n3)cn2)CC1` [Example 10, (R)-4,4-Difluoro-3-hydroxy-1-methyl-3-(3-(6-(2-((1-(1-methylpiperidin-4-yl)-1H-pyrazol-4-yl)amino)pyrimidin-4-yl)pyridin-2-yl)isoxazol-5-yl)pyrrolidin-2-one] was tested. Which IC50 did it give?
Answer: 50 to 500 nM
